Consider two substances from patent publication US20170042991A1, “COMPOSITIONS COMPRISING GLUTEN PEPTIDES AND USES THEREOF” (ImmusanT, Inc., priority 2014, published 2017).

The assay relates to PBMC. As to the kind of experiment: Overnight IFNγ ELISpot assay with fresh PBMC (Example 2). It is filed as cell-based, human. The conditions noted are these: for Percent of maximal response, ELISp: after oral gluten challenge; for IFNγ ELISpot % max Mean: individual peptides 5 μM, Day-6, n = 5, Peptide 2 = CSBio batch. The procedure: Ten HLA-DQ2.5+ adults with celiac disease diagnosed according to the National Institutes of Health Consensus Statement 2004 were enrolled (Table 7).^22 Subjects were required to have followed gluten-free diet for at least one year and without known gluten exposures within the previous two-months. […] Full inclusion and exclusion criteria are described in Table 8. Each of 3 consecutive days subjects consumed 3 cookies that were prepared from approximately 4.5 g wheat gluten, 3 g barley flour protein, and 1.5 g rye flour protein. Blood was collected before and six days after commencing the oral challenge. Blood was collected using a 21G butterfly needle directly into 10 mL lithium heparin tubes (BD Vacutainer® Heparin tube #367880) and QuantiFERON® NIL (0591-0205, Cellestis Ltd., Chadstone VIC 3148 Australia) and QuantiFERON® MITOGEN (0593-0201, Cellestis Ltd.).
Overnight IFNγ ELISpot assays (Human IFN-γ ELISpotPRO kit, transparent, ALP; Mabtech AB, #3420-2APT-10) were performed using PBMC freshly separated from heparinized blood diluted 1:1 in PBS with 2% fetal bovine serum (Stemcell Technologies #07905; Vancouver, BC, V5Z 1B3, Canada) overlaid on density gradient medium (Ficoll-Paque™ PLUS; GE Healthcare Lice Sciences #:17-1440-02) in SepMate™-50 tubes (Stemcell Technologies #15460). PBMC (8 million/mL) were resuspended in serum-free medium with gentamicin and phenol red (X-VIVO™15; Lonza, Walkersville Mass. 21793). PBMC (0.4 million/50 μL/well) and incubated with 50 μL 80% X-vivol5, 0.2% DMSO and 20% PBS in three triplicate wells (“medium only”), or with 50 μL PHA-L 20 μg/ml or peptide at 2× final concentration in 80% X-vivol5, 0.2% DMSO and 20% PBS. Peptide solutions to be added to individual ELISpot wells were prepared in 96-well U-bottom plates (60 μL/well) that were then sealed with adhesive ELISA plate cover slips before replacing the plastic lid and being frozen at −80° C. 96-well plates containing peptide solutions were thawed at room temperature for 10 min while being centrifuged at 300 g immediately prior to being added to ELISpot wells. Peptide pools and mitogen were assessed in triplicate wells, and individual peptides were assessed in duplicate wells. X-VIVO™15 (50 μL) was incubated with 80% X-vivol5, 0.2% DMSO and 20% PBS (50 μL) in triplicate wells (“no PBMC” control). A Zeiss automated ELISpot counter was used to determine spot forming units (SFU) per well (Zellnet Inc., Fort Lee, N.J. 07024). Laboratory staff were unaware of the arrangement of peptide solutions in ELISpot wells during assay setup and plate counting.

Non-standard residues stand in square brackets, D forms with d. pGlu = O=C1CC[C@@H](C(=O)O)N1

As to “(pE)PEQPIPEQPQPYPQQ-amide ([pGlu]PEQPIPEQPQPYPQQ-NH2; SMILES CC[C@H](C)[C@H](NC(=O)[C@@H]1CCCN1C(=O)[C@H](CCC(N)=O)NC(=O)[C@H](CCC(=O)O)NC(=O)[C@@H]1CCCN1C(=O)[C@@H]1CCC(=O)N1)C(=O)N1CCC[C@H]1C(=O)N[C@@H](CCC(=O)O)C(=O)N[C@@H](CCC(N)=O)C(=O)N1CCC[C@H]1C(=O)N[C@@H](CCC(N)=O)C(=O)N1CCC[C@H]1C(=O)N[C@@H](Cc1ccc(O)cc1)C(=O)N1CCC[C@H]1C(=O)N[C@@H](CCC(N)=O)C(=O)N[C@@H](CCC(N)=O)C(N)=O) [Peptide 3]”, the “IFNγ ELISpot % max Mean” value was 53 % max. For the setting “Peptide 3 10 μg/mL (5.3 μM)”, the “IFNγ ELISpot responses relative to Peptide 14 5 μM” value is listed as “one-half”. The “Percent of maximal response, ELISp” value (Subject 3, Max. 18 SFU) is 50 % of max. Besides, under “Subject 4, Max. 36 SFU”, the “Percent of maximal response, ELISp” value was 83 % of max. Moreover, where the note is “Subject 6, Max. 16 SFU”, the “Percent of maximal response, ELISp” value is reported as 69 % of max. Also, the “Percent of maximal response, ELISp” value (Subject 8, Max. 17 SFU) is 53 % of max. The “Percent of maximal response, ELISp” value (Subject 10, Max. 11 SFU) is 9 % of max.
Consider “(pE)LQPFPQPELPYPQPQ-amide ([pGlu]LQPFPQPELPYPQPQ-NH2; SMILES CC(C)C[C@H](NC(=O)[C@@H]1CCC(=O)N1)C(=O)N[C@@H](CCC(N)=O)C(=O)N1CCC[C@H]1C(=O)N[C@@H](Cc1ccccc1)C(=O)N1CCC[C@H]1C(=O)N[C@@H](CCC(N)=O)C(=O)N1CCC[C@H]1C(=O)N[C@@H](CCC(=O)O)C(=O)N[C@@H](CC(C)C)C(=O)N1CCC[C@H]1C(=O)N[C@@H](Cc1ccc(O)cc1)C(=O)N1CCC[C@H]1C(=O)N[C@@H](CCC(N)=O)C(=O)N1CCC[C@H]1C(=O)N[C@@H](CCC(N)=O)C(N)=O) [Peptide 1]”, for which the “IFNγ ELISpot % max Mean” value is 13 % max. The “Percent of maximal response, ELISp” value (Subject 3, Max. 18 SFU) is recorded as 11 % of max. Besides, for the setting “Subject 4, Max. 36 SFU”, the “Percent of maximal response, ELISp” value is 22 % of max. Also, the “Percent of maximal response, ELISp” value (Subject 6, Max. 16 SFU) is recorded as 25 % of max. Where the note is “Subject 8, Max. 17 SFU”, the “Percent of maximal response, ELISp” value was 0 % of max. The “Percent of maximal response, ELISp” value (Subject 10, Max. 11 SFU) is 9 % of max.
